Our source for the IC50 values is patent publication US10562882B2, “Piperidine derivatives for use in the treatment or prevention of psychiatric and neurological conditions” (Takeda Pharmaceutical Company Limited, priority 2013, dated 2020).

Where a name gives a salt, the structure may show the parent alone.

This assay deals with human PKR1 receptors (Homo sapiens (Human), UniProt Q8TCW9). The assay is described as follows: PKR1 antagonist intracellular calcium (FLIPR) assay, block of PK1-mediated calcium release. Type of assay: cell-based. Conditions: RBL2H3 cells expressing human PKR1; PK1 at EC80; minimum of two independent assays. The method, then: Prokineticin receptor 1 (PKR1) antagonists may be functionally assessed by measurement of change in intracellular calcium levels induced by Gq mediated increase in inositol triphosphate (IP3) levels. The ability of a compound to block the intracellular release of calcium mediated by PK1 in RBL2H3 cells expressing human PKR1 receptors is determined as a measure of the compound's antagonist activity in vitro.
human PKR1 receptors, sequence (Q8TCW9 whole entry): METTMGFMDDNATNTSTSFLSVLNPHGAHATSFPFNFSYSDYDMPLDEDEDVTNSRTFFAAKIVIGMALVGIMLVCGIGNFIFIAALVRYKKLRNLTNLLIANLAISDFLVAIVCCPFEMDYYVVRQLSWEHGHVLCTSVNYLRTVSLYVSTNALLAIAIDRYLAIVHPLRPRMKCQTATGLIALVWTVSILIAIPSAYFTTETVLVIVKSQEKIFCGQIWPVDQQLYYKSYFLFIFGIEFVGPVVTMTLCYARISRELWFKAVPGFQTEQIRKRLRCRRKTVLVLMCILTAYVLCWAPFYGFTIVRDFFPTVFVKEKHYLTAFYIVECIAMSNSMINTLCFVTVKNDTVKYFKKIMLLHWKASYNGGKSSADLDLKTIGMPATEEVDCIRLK
Approximately 10,000 cells per assay well are seeded in normal culture medium in a 384 well plate (Corning). Twenty-four hours after seeding, the cells are loaded with a calcium sensitive fluorescent dye by replacing the culture medium with assay buffer (1× Hanks buffered saline, 25 mM HEPES, 0.1% w/v fatty acid free BSA (bovine serum albumin), pH 7.4) containing 1 mM probenecid and 1× Calcium 5 Reagent (Molecular Devices). Cells are incubated at 37° C. for 1 hour to allow for dye uptake.
To test for antagonist activity, test compounds at a final concentration range between 0.32 nM-10 μM (diluted in assay buffer) are added to duplicate assay wells and allowed to incubate for 10 minutes prior to stimulation with PK1. After incubation with test compounds the assay plate is placed in a FLIPR Tetra (Molecular Devices) and PK1 (diluted in assay buffer) is added at the determined EC80 concentration (final). Ligand-dependent changes in intracellular calcium levels are determined by measuring changes in fluorescence of the dye at […] following excitation at 485 nm. […] A minimum of two IC50 values determined from independent assays are generated for each compound.
As for `Cc1c(C2CCCN(C(=O)c3cnnc(N(C)C)c3)C2)[nH]c2ccccc12` (stereo not shown) [Example 24, N,N-Dimethyl-5-[3-(3-methyl-1H-indol-2-yl)piperidine-1-carbonyl]pyridazin-3-amine], the IC50 worked out at 7410 nM. Next, `CCn1c(C2CCCN(C(=O)c3cnnc(N(C)C)c3)C2)cc2cc(Cl)ccc21` (stereo not shown) [Example 22, 5-[3-(5-Chloro-1-ethyl-1H-indol-2-yl)piperidine-1-carbonyl]-N,N-dimethylpyridazin-3-amine]: 1730 nM; `Cc1cc(Cl)cnc1C1CCCN(C(=O)c2cnnc(N(C)C)c2)C1` (stereo not shown) [Example 28, 5-[3-(5-Chloro-3-methylpyridin-2-yl)piperidine-1-carbonyl]-N,N-dimethylpyridazin-3-amine]: 1040 nM; `CCn1cc(C(=O)N2CCCC(OC)(c3ncc(Cl)cc3C)C2)cn1` (stereo not shown) [Example 40, 5-Chloro-2-[1-(1-ethyl-1H-pyrazole-4-carbonyl)-3-methoxypiperidin-3-yl]-3-methylpyridine]: 3410 nM. As for `CNc1cc(C(=O)N2CCCC(F)(c3ncc(Cl)cc3C)C2)ccn1` (stereo not shown) [Example 35, 4-[3-(5-Chloro-3-methylpyridin-2-yl)-3-fluoropiperidine-1-carbonyl]-N-methylpyridin-2-amine], the IC50 came out at 290 nM. Next, `Cc1cc(Cl)cnc1C1(F)CCCN(C(=O)c2cn(C)nc2N)C1` (stereo not shown) [Example 43, 4-[3-(5-Chloro-3-methylpyridin-2-yl)-3-fluoropiperidine-1-carbonyl]-1-methyl-1H-pyrazol-3-amine]: more than 5000 nM. `CNc1cc(C(=O)N2CCCC(c3cc4ccccc4n3C(C)C)C2)cnn1` (stereo not shown) [Example 14, N-Methyl-5-{3-[1-(propan-2-yl)-1H-indol-2-yl]piperidine-1-carbonyl}pyridazin-3-amine]: the IC50 came to 540 nM.

As for `CCn1cc(C(=O)N2CCCC(F)(c3ncc(Cl)cc3C)C2)cn1` (stereo not shown) [Example 41, 5-Chloro-2-[1-(1-ethyl-1H-pyrazole-4-carbonyl)-3-fluoropiperidin-3-yl]-3-methylpyridine], the IC50 stood at 2390 nM.

Consider `CCn1c(C2CCCN(C(=O)c3cnnc(NC)c3)C2)cc2cc(C)ccc21` (stereo not shown) [Example 19, 5-[3-(1-Ethyl-5-methyl-1H-indol-2-yl)piperidine-1-carbonyl]-N-methylpyridazin-3-amine], for which the IC50 is 2690 nM. With `CNc1cc(C(=O)N2CCCC(OC)(c3ncc(Cl)cc3C)C2)cnn1` (stereo not shown) [Example 36, 5-[3-(5-Chloro-3-methylpyridin-2-yl)-3-methoxypiperidine-1-carbonyl]-N-methylpyridazin-3-amine] the figure was 1490 nM.

For `Cc1cc(Cl)cnc1C1(F)CCCN(C(=O)c2cnnc(N(C)C)c2)C1` (stereo not shown) [Example 39, 5-[3-(5-Chloro-3-methylpyridin-2-yl)-3-fluoropiperidine-1-carbonyl]-N,N-dimethylpyridazin-3-amine], the IC50 was found to be 400 nM. With `COC1(c2ncc(Cl)cc2C(F)(F)F)CCCN(C(=O)c2ccnc(N(C)C)c2)C1` (stereo not shown) [Example 33, 4-{3-[5-Chloro-3-(trifluoromethyl)pyridin-2-yl]-3-methoxypiperidine-1-carbonyl}-N,N-dimethylpyridin-2-amine] the figure was 510 nM; with `CCn1c(C2CCCN(C(=O)c3ccnc(N(C)C)c3)C2)cc2ccccc21` (stereo not shown) [Example 10, 4-[3-(1-Ethyl-1H-indol-2-yl)piperidine-1-carbonyl]-N,N-dimethylpyridin-2-amine], 390 nM. With `CNc1cc(C(=O)N2CCCC(F)(c3ncc(Cl)cc3C)C2)cnn1` (stereo not shown) [Example 38, 5-[3-(5-Chloro-3-methylpyridin-2-yl)-3-fluoropiperidine-1-carbonyl]-N-methylpyridazin-3-amine] the figure was 1250 nM; with `CC(C)n1c(C2CCCN(C(=O)c3cnnc(Cl)c3)C2)nc2ccccc21` (stereo not shown) [Example 5, 2-[1-(6-Chloropyridazine-4-carbonyl)piperidin-3-yl]-1-(propan-2-yl)-1H-1,3-benzodiazole], 7460 nM; with `CCn1cc(C(=O)N2CCCC(c3cc4ccccc4n3C(C)C)C2)cn1` (stereo not shown) [Example 15, 2-{1-[(1-Ethyl-1H-pyrazol-4-yl)carbonyl]piperidin-3-yl}-1-(propan-2-yl)-1H-indole], 330 nM. Next, `CCn1c(C2CCCN(C(=O)c3cnnc(N(C)C)c3)C2)cc2ccccc21` (stereo not shown) [Example 11, 5-[3-(1-Ethyl-1H-indol-2-yl)piperidine-1-carbonyl]-N,N-dimethylpyridazin-3-amine]: 940 nM; `CC(C)n1c(C2CCCN(C(=O)c3ccnc(N(C)C)c3)C2)nc2ccccc21` (single isomer, unassigned; enantiomer 1) [Example 2, N,N-Dimethyl-4-{3-[1-(propan-2-yl)-1H-1,3-benzodiazol-2-yl]piperidine-1-carbonyl}pyridin-2-amine (enantiomer 1)]: 330 nM; `CCn1cc(C(=O)N2CCCC(c3nc4ccccc4n3C(C)C)C2)cn1` (stereo not shown) [Example 7, 2-[1-(1-Ethyl-1H-pyrazole-4-carbonyl)piperidin-3-yl]-1-(propan-2-yl)-1H-1,3-benzodiazole]: 1820 nM.

For the compound `CCn1c(C2CCCN(C(=O)c3cn(C)nc3N)C2)cc2cc(Cl)ccc21` (stereo not shown) [Example 27, 4-[3-(5-Chloro-1-ethyl-1H-indol-2-yl)piperidine-1-carbonyl]-1-methyl-1H-pyrazol-3-amine], the IC50 came to 910 nM.

Turning to `CCn1c(C2CCCN(C(=O)c3cn(C)nc3N)C2)c(C)c2ccccc21` (stereo not shown) [Example 25, 4-[3-(1-Ethyl-3-methyl-1H-indol-2-yl)piperidine-1-carbonyl]-1-methyl-1H-pyrazol-3-amine], the IC50 stood at 7860 nM. With `CNc1cc(C(=O)N2CCCC(c3nc4ccccc4n3C(C)C)C2)cnn1` (stereo not shown) [Example 6, N-Methyl-5-{3-[1-(propan-2-yl)-1H-1,3-benzodiazol-2-yl]piperidine-1-carbonyl}pyridazin-3-amine] the figure was 1740 nM; with `CCn1c(C2CCCN(C(=O)c3cnnc(N(C)C)c3)C2)cc2cc(C)ccc21` (stereo not shown) [Example 21, 5-[3-(1-Ethyl-5-methyl-1H-indol-2-yl)piperidine-1-carbonyl]-N,N-dimethylpyridazin-3-amine], 5340 nM. With `CNc1cc(C(=O)N2CCCC(OC)(c3ncc(Cl)cc3C)C2)ccn1` (stereo not shown) [Example 34, 4-[3-(5-Chloro-3-methylpyridin-2-yl)-3-methoxypiperidine-1-carbonyl]-N-methylpyridin-2-amine] the figure was 470 nM. With `CNc1cc(C(=O)N2CCCC(c3[nH]c4ccccc4c3C)C2)cnn1` (stereo not shown) [Example 23, N-Methyl-5-[3-(3-methyl-1H-indol-2-yl)piperidine-1-carbonyl]pyridazin-3-amine] the figure was 7410 nM. In the case of `CC(C)n1c(C2CCCN(C(=O)c3cnnc(N(C)C)c3)C2)cc2ccccc21` (stereo not shown) [Example 13, N,N-Dimethyl-5-{3-[1-(propan-2-yl)-1H-indol-2-yl]piperidine-1-carbonyl}pyridazin-3-amine], the IC50 was 760 nM. As to `CC(C)n1c(C2CCCN(C(=O)c3cn(C)nc3N)C2)cc2ccccc21` (stereo not shown) [Example 16, 1-Methyl-4-{3-[1-(propan-2-yl)-1H-indol-2-yl]piperidine-carbonyl}-1H-pyrazol-3-amine], the IC50 stood at 1440 nM. Next, `CCn1c(C2CCCN(C(=O)c3cnnc(NC)c3)C2)c(C)c2ccccc21` (stereo not shown) [Example 18, 5-[3-(1-Ethyl-3-methyl-1H-indol-2-yl)piperidine-1-carbonyl]-N-methylpyridazin-3-amine]: 2170 nM; `CCn1c(C2CCCN(C(=O)c3cnnc(NC)c3)C2)cc2ccccc21` (stereo not shown) [Example 12, 5-[3-(1-Ethyl-1H-indol-2-yl)piperidine-1-carbonyl]-N-methylpyridazin-3-amine]: 480 nM; `CNc1cc(C(=O)N2CCCC(OC)(c3ncc(Cl)cc3C(F)(F)F)C2)cnn1` (stereo not shown) [Example 30, 5-({3-[5-Chloro-3-(trifluoromethyl)pyridin-2-yl]-3-methoxypiperidin-1-yl}carbonyl)-N-methylpyridazin-3-amine]: 2080 nM. With `CNc1cc(C(=O)N2CCCC(OC)(c3ncc(Cl)cc3C(F)(F)F)C2)ccn1` (stereo not shown) [Example 29, 4-{3-[5-Chloro-3-(trifluoromethyl)pyridin-2-yl]-3-methoxypiperidine-1-carbonyl}-N-methylpyridin-2-amine formate], the IC50 was 480 nM. With `COC1(c2ncc(Cl)cc2C(F)(F)F)CCCN(C(=O)c2cnnc(N(C)C)c2)C1` (stereo not shown) [Example 31, 5-{3-[5-Chloro-3-(trifluoromethyl)pyridin-2-yl]-3-methoxypiperidine-1-carbonyl}-N,N-dimethylpyridazin-3-amine] the figure was 1620 nM; with `COC1(c2ncc(Cl)cc2C)CCCN(C(=O)c2cnnc(N(C)C)c2)C1` (stereo not shown) [Example 37, 5-[3-(5-Chloro-3-methylpyridin-2-yl)-3-methoxypiperidine-1-carbonyl]-N,N-dimethylpyridazin-3-amine], 920 nM; with `CNc1cc(C(=O)N2CCCC(c3cc4ccccc4n3C)C2)cnn1` (stereo not shown) [Example 9, N-Methyl-5-[3-(1-methyl-1H-indol-2-yl)piperidine-1-carbonyl]pyridazin-3-amine], 1080 nM.

What is called IC50 is the concentration that gives 50% inhibition.
